33 compounds from patent US11912703B2, “6-azaindole compounds” (BRISTOL-MYERS SQUIBB COMPANY, priority 2017, dated 2024) can be followed below.

pIC50: −log10 of the molar value.

Test [1] has as its target human TLR7 (Homo sapiens (Human), UniProt Q9NYK1). The experiment in a line: TLR7 inhibition reporter assay (HEK-Blue SEAP). The test is classed as cell-based. The conditions noted are these: HEK-Blue cells overexpressing human TLR7, gardiquimod 7.5 μM stimulation. In general terms: A reporter such as luciferase makes a cellular process visible.
Test [2] deals with human TLR8 (Homo sapiens (Human), UniProt Q9NR97). As to the kind of experiment: TLR8 inhibition reporter assay (HEK-Blue SEAP).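 Note: SEAP driven by IFN-β minimal promoter with five NF-κB and AP-1 sites, compounds tested 0.05 nM to 50 µM, 22 h incubation, inhibition relative to agonist plus DMSO wells.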 The conditions noted are these: read-out: TLR8 IC50; HEK-Blue cells overexpressing human TLR8, R848 15.9 μM stimulation, SEAP reporter.
Description: (§1) HEK-Blue™-cells (Invivogen) overexpressing human TLR7, TLR8 or TLR9 receptors were used for screening inhibitors of these receptors using an inducible SEAP (secreted embryonic alkaline phosphatase) reporter gene under the control of the IFN-β minimal promoter fused to five NF-κB and AP-1-binding sites. Briefly, cells are seeded into Greiner 384 well plates (15000 cells per well for TLR7, 20,000 for TLR8 and 25,000 for TLR9) and then treated with test compounds in DMSO to yield a final dose response concentration range of 0.05 nM-50 μM. After a 30 minute compound pre-treatment at room temperature, the cells are then stimulated with a TLR7 ligand (gardiquimod at a final concentration of 7.5 μM), TLR8 ligand (R848 at a final concentration of 15.9 μM) or TLR9 ligand (ODN2006 at a final concentration of 5 nM) to activate NF-κB and AP-1 which induce the production of SEAP. After a 22 hour incubation at 37° C., 500 CO2, SEAP levels are determined with the addition of HEK-Blue™ Detection reagent (Invivogen), a cell culture medium that allows for detection of SEAP, according to manufacturer's specifications.
Test [3] addresses human TLR9 (Homo sapiens (Human), UniProt Q9NR96). The experiment in a line: TLR9 inhibition reporter assay (HEK-Blue SEAP).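 Note: SEAP driven by IFN-β minimal promoter carrying five NF-κB and AP-1 sites, 22 h at 37 °C, compounds 0.05 nM–50 µM, inhibition scaled between agonist-plus-DMSO and reference-inhibitor wells.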 The following applies: read-out: TLR9 IC50; HEK-Blue cells overexpressing human TLR9, ODN2006 5 nM stimulation, SEAP reporter.
Description: as §1

human TLR8, sequence (Q9NR97 27-1041): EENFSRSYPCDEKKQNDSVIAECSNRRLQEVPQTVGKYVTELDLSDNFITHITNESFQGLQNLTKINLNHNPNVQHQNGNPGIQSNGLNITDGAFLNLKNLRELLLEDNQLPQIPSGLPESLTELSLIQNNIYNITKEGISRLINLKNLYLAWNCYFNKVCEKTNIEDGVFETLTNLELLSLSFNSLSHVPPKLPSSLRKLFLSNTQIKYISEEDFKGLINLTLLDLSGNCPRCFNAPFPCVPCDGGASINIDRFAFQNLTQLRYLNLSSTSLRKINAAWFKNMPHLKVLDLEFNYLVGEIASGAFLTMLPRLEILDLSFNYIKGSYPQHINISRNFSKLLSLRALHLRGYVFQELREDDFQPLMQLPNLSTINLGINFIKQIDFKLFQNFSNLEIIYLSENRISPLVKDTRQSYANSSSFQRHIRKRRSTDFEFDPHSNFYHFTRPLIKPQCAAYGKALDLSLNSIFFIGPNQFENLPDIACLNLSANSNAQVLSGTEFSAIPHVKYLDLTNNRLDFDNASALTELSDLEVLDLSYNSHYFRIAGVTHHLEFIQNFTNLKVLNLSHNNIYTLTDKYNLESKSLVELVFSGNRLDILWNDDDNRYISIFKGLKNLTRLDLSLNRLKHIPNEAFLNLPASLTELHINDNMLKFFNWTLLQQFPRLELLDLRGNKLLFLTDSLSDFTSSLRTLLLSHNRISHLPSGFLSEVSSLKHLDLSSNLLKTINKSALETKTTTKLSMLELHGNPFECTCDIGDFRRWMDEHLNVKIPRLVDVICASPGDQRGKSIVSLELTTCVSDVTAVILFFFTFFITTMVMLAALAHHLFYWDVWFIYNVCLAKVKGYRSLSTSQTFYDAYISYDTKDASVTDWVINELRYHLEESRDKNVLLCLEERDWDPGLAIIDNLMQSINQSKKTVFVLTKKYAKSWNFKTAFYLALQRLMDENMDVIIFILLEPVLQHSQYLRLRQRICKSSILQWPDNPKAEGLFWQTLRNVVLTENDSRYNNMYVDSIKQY
human TLR9, sequence (Q9NR96 26-1032): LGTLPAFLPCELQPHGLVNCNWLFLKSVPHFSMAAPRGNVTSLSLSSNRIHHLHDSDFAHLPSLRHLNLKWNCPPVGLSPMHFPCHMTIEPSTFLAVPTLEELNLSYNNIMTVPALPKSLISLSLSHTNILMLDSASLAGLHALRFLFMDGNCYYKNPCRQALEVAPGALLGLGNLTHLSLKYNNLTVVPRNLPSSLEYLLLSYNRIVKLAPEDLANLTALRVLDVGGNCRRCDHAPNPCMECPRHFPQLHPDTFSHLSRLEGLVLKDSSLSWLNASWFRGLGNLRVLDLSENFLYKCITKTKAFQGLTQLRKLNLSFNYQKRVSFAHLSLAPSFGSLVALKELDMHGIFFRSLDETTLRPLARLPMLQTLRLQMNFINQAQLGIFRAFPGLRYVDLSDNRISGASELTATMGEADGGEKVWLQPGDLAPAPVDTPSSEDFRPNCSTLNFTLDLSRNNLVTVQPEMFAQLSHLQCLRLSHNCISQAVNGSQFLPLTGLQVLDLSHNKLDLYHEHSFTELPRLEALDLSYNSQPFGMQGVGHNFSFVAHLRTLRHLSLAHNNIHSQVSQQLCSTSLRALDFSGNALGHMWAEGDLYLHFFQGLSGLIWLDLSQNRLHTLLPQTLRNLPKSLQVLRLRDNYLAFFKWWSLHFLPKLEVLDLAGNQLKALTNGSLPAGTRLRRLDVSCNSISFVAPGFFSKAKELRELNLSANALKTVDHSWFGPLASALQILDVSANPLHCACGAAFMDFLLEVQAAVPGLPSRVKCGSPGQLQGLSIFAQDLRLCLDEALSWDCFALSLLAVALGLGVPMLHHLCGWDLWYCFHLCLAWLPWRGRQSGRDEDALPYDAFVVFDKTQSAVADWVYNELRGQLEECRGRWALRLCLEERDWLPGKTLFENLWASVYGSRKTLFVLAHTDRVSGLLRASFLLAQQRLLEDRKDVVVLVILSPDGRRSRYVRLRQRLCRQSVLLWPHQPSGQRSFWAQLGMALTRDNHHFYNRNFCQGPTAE
human TLR7, sequence (Q9NYK1 27-1049): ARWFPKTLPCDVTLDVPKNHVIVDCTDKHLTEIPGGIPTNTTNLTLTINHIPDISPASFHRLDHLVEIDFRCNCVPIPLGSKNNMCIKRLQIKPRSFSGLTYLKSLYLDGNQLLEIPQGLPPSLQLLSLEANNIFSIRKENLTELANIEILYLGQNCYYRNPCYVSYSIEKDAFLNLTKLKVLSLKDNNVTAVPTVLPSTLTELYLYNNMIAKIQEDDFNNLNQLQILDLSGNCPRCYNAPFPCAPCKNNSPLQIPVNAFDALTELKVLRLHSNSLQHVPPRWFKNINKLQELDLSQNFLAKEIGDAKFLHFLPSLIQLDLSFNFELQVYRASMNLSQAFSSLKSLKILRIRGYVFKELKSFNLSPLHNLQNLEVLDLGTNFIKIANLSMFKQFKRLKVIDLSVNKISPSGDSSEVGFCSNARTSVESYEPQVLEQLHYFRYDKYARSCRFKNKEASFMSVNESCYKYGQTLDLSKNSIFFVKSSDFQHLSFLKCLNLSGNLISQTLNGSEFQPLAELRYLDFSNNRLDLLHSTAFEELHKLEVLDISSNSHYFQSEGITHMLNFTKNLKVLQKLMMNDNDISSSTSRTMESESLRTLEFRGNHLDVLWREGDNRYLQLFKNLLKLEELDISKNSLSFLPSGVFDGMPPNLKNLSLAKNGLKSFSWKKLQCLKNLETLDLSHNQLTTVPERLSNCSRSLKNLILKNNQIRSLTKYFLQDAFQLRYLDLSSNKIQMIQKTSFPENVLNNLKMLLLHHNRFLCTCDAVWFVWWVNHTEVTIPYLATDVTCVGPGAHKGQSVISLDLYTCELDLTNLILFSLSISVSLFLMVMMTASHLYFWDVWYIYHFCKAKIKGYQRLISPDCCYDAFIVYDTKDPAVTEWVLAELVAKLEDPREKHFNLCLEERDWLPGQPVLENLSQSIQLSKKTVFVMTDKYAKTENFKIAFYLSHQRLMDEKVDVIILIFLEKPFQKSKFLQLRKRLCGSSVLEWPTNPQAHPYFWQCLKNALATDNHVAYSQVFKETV

For `Cc1cc(-c2[nH]c3cnc(N4CCNCC4)cc3c2C(C)C)cn2ncnc12` [Example 301], the pIC50 – broadly, the negative decadic logarithm of the IC50, by convention in mol/L – in test [1] was less than 5.51; in test [2], less than 5.51; in test [3], 5.57.
Take `CNC(=O)CN1CCN(c2cc3c(C(C)C)c(-c4cc(C)c5ncnn5c4)[nH]c3cn2)CC1` [Example 302]: the pIC50 in test [1] was 5.80; in test [2], less than 5.51; in test [3] it was less than 4.30.
On the same counts, the results for `COc1cc(-c2[nH]c3cnc(N4CCN(C(=O)CN(C)C)CC4)c(Cl)c3c2C(C)C)cn2ncnc12` [Example 304] are 8.82, 8.66 and 6.30.
On the same counts, the results for `COc1cc(-c2[nH]c3cnc(N4CCN(CC(=O)N(C)C)CC4)c(Cl)c3c2C(C)C)cn2ncnc12` [Example 305] are 8.60, 8.85 and 5.55.
In the case of `COc1cc(-c2[nH]c3cnc(C4CCN(C5COC5)CC4)cc3c2C(C)C)cn2ncnc12` [Example 306], the pIC50 was 8.41 in test [1], 7.80 in test [2] and 6.10 in test [3].
On the same counts, the results for `COc1cc(-c2[nH]c3cnc(N4CCC(NC(C)C)CC4)cc3c2C(C)C)cn2ncnc12` [Example 307] are 8.52, 9.07 and 6.18.
On the same counts, the results for `COc1cc(-c2[nH]c3cnc(C4CCC(NC5COC5)CC4)cc3c2C(C)C)cn2ncnc12` (stereo not drawn) [Example 308] are 8.10, 7.60 and 6.80.
For `COc1cc(-c2[nH]c3cnc(C4CCC(N5CC6(COC6)C5)CC4)cc3c2C(C)C)cn2ncnc12` (stereo not drawn) [Example 309], the pIC50 in test [1] was 8.14; in test [2] it was 7.31; in test [3], 6.88.
On the same counts, the results for `COc1cc(-c2[nH]c3cnc(C4CCC(NCC(C)(C)C)CC4)cc3c2C(C)C)cn2ncnc12` (stereo not drawn) [Example 310] are 7.89, 7.49 and 6.19.
The corresponding values for `COc1cc(-c2[nH]c3cnc(C4CCNCC4)cc3c2C(C)C)cn2ncnc12` [Example 312] are 8.07, 6.94 and 6.04.
`COc1cc(-c2[nH]c3cnc(N4CCC(NC(C)C(C)C)CC4)cc3c2C(C)C)cn2ncnc12` (stereo not drawn) [Example 313]: the negative logarithm of the IC50 (pIC50) was 8.54 in test [1], 9.57 in test [2] and 5.62 in test [3].
The corresponding values for `COc1cc(-c2[nH]c3cnc(N4CCC(N(C)C5COC5)CC4)cc3c2C(C)C)cn2ncnc12` [Example 314] are 8.37, 8.82 and 5.43.
On the same counts, the results for `COc1cc(-c2[nH]c3cnc(C4CCC(NC(C)C)CC4)cc3c2C(C)C)cn2ncnc12` (stereo not drawn) [Example 315] are 8.12, 7.33 and 6.78.
On the same counts, the results for `CCN(C)C1CCC(c2cc3c(C(C)C)c(-c4cc(OC)c5ncnn5c4)[nH]c3cn2)CC1` (stereo not drawn) [Example 316] are 8.02, 7.48 and 7.10.
In the case of `COc1cc(-c2[nH]c3cnc(C4CCC(NC5CCOC5)CC4)cc3c2C(C)C)cn2ncnc12` (stereo not drawn) [Example 317], the results for the negative-log IC50 (pIC50) in test [1], in test [2] and in test [3] were 8.68, 8.15 and 7.47, respectively.
The corresponding values for `Cc1c(-c2[nH]c3cnc(C4CCC(NC(C)C)CC4)cc3c2C(C)C)cn2ncnc2c1C` (stereo not drawn) [Example 318] are 8.22, 7.68 and 6.07.
On the same counts, the results for `COc1cc(-c2[nH]c3cnc(N4CCN(CC(N)=O)CC4)cc3c2C(C)C)cn2ncnc12` [Example 319] are 7.92, 8.43 and 4.84.
The corresponding values for `COc1cc(-c2[nH]c3cnc(N4CCC(NC5COC5)CC4)cc3c2C(C)C)cn2ncnc12` [Example 320] are 8.36, 8.70 and 5.52.
`COc1cc(-c2[nH]c3cnc(N4CCC(NC5CCOCC5)CC4)cc3c2C(C)C)cn2ncnc12` [Example 321]: the results for the pIC50 in test [1], in test [2] and in test [3] were 8.55, 9.19 and 6.00, respectively.
On the same counts, the results for `COc1cc(-c2[nH]c3cnc(N4CCC(NCC5(C)COC5)CC4)cc3c2C(C)C)cn2ncnc12` [Example 322] are 8.68, 9.64 and 5.84.
The corresponding values for `COc1cc(-c2[nH]c3cnc(C4CCC(NC(C)C)CC4)cc3c2C(C)C)cn2ncnc12` (stereo not drawn) [Example 323] are 8.35, 7.70 and 6.59.
As for `COc1cc(-c2[nH]c3cnc(C4CCC(N5CCC5)CC4)cc3c2C(C)C)cn2ncnc12` (stereo not drawn) [Example 324], the pIC50 in test [1] was 8.52; in test [2], 7.70; in test [3], 6.55.
The corresponding values for `COc1cc(-c2[nH]c3cnc(C4CCC(NCC(C)(C)C)CC4)cc3c2C(C)C)cn2ncnc12` (stereo not drawn) [Example 325] are 8.62, 7.92 and 6.29.
Turning to `Cc1c(-c2[nH]c3cnc(C4CCC(NC(C)C)CC4)cc3c2C(C)C)cn2ncnc2c1C` (stereo not drawn) [Example 326], the pIC50 in test [1] is 7.85; in test [2] it was 7.11; in test [3] it was 5.91.
On the same counts, the results for `Cc1c(-c2[nH]c3cnc(C4CCC(NC5CCOC5)CC4)cc3c2C(C)C)cn2ncnc2c1C` (stereo not drawn) [Example 327] are 8.15, 7.77 and 6.11.
Consider `CNC(=O)CN(C)C1CCC(c2cc3c(C(C)C)c(-c4cc(OC)c5ncnn5c4)[nH]c3cn2)CC1` (stereo not drawn) [Example 328], for which the pIC50 was 7.96 in test [1], 7.22 in test [2] and 5.86 in test [3].
In the case of `CNC(=O)CNC1CCN(c2cc3c(C(C)C)c(-c4cc(OC)c5ncnn5c4)[nH]c3cn2)CC1` [Example 329], the pIC50 in test [1] was 8.12; in test [2], 8.13; in test [3], 6.19.
On the same counts, the results for `COc1cc(-c2[nH]c3cnc(C4CCC(NC5COC5)CC4)cc3c2C(C)C)cn2ncnc12` (stereo not drawn) [Example 330] are 8.96, 8.26 and 6.59.
On the same counts, the results for `CCN(C)C1CCC(c2cc3c(C(C)C)c(-c4cc(OC)c5ncnn5c4)[nH]c3cn2)CC1` (stereo not drawn) [Example 331] are 6.58, 6.20 and 5.48.
The corresponding values for `COc1cc(-c2[nH]c3cnc(C4CCC(N5CCC5)CC4)cc3c2C(C)C)cn2ncnc12` (stereo not drawn) [Example 332] are 8.11, 7.25 and 6.81.
On to `COc1cc(-c2[nH]c3cnc(N4CCC(NCC(=O)N(C)C)CC4)cc3c2C(C)C)cn2ncnc12` [Example 333], for which the pIC50 is 8.27 in test [1], 8.37 in test [2] and 5.97 in test [3].
The corresponding values for `Cc1c(-c2[nH]c3cnc(C4CCC(NC5COC5)CC4)cc3c2C(C)C)cn2ncnc2c1C` (stereo not drawn) [Example 334] are 9.46, 8.85 and 6.34.
For `Cc1c(-c2[nH]c3cnc(C4CCC(N5CCC5)CC4)cc3c2C(C)C)cn2ncnc2c1C` (stereo not drawn) [Example 335], the pIC50 in test [1] is 8.37; in test [2], 7.38; in test [3], 6.17.
